What was measured:
Assay type in all cases: cell-based, mouse
AMPK = AMPK activation assay (ELISA ratio phosphorylated α-AMPK:total α-AMPK in C2C12 cells); conditions: concentrations as low as 30 nanomolar, 4 hours of incubation
Experimental: C2C12 cells from the mouse muscle myoblastoma cell line (from Sigma-Aldrich) were seeded at a cell density of 10,000 cells per well in a 96-well plate in 200 μl of growth medium (high glucose DMEM, 10% foetal bovine serum […], penicillin and […]). The cells were allowed to grow until confluence and on the day of the assay they were incubated with the compound of interest in 100 μl of growth medium at 37° C. and 5% CO2 in an incubator for between 1 and 24 hours. All conditions were tested in quadruplicate. The compounds were administered dissolved in sterile anhydrous dimethyl sulphoxide at different concentrations. As a positive control for AMPK activation, an adenosine monophosphate (AMP) solution with a final concentration of […] was used. After the corresponding times, the medium was removed and the cells were carefully washed three times with PBS at room temperature and the Abcam Elisa kit was used to quantify the ratio of phosphorylated α-AMPK:total α-AMPK. The manufacturer's instructions were followed and the signal was quantified using a Licor Odissey® scanner.
The compounds selected as AMPK activators according to the criteria described above are used in glucose consumption tests and MTT cell viability tests.

C2C12 cells [1] = test: Glucose consumption test (2-deoxyglucose uptake, luminometric) in C2C12 myotubes; conditions: one hour incubation
Experimental: C2C12 cells of the mouse muscle myoblastoma cell line (from Sigma-Aldrich) were seeded at a cell density of 10,000 cells per well in a white 96-well plate compatible with the use of a luminometer. Cells were grown for 5 days in 200 μl/well of growth medium (high glucose DMEM, 10% foetal bovine serum […], penicillin and […]) in an incubator at 37° C. and 5% CO2. The medium was changed every two days. The medium was then replaced with a differentiation medium (low glucose DMEM, 2% […], penicillin and […]), allowing the cells to differentiate into myotubes for three days. The medium was changed every day. One day prior to testing, cells were serum starved (low glucose DMEM, penicillin and […]). The medium was then replaced by a DMEM medium without glucose and the compound N9-(3-diethylphosphonyl)phenyl-adenine was incubated for one hour at different concentrations, replicating the conditions in quadruplicate. The positive control consisted of 100 nanomolar human insulin solution (from Sigma). A Promega glucose consumption kit was used following the manufacturer's instructions. […]
Total luminescence was measured on a Biotek MX luminometric plate reader. […]

C2C12 cells [2] = test: MTT cell viability/proliferation assay in C2C12 myotubes
Experimental: MTT Cell Viability/Proliferation Assay
The MTT redox assay is based on the metabolic reduction of bromide from 3-(4,5-dimethylthiazol-2-yl)-2,5-diphenyltetrazole (MTT) that is produced by the mitochondrial enzyme succinate-dehydrogenase, which colours the formazan dye blue, allowing to determine the mitochondrial functionality of the treated cells.
C2C12 cells were seeded at a density of 10,000 cells per well in a white 96-well plate compatible with the use of a luminometer. Cells were grown for 5 days in 200 μl/well of growth medium (high glucose DMEM, 10% FBS, penicillin and […]), with the medium being replaced every two days. Subsequently, the medium was replaced by a differentiation medium (low glucose DMEM, 2% NHS, penicillin and […]) and the cells were allowed to differentiate in myotubes for three days, the medium being changed every day. In all processes, cells were incubated at 37° C. and 5% CO2 in a cell incubator. The compound N9-(3-diethylphosphonyl)phenyl-adenine was incubated for 24 and 48 hours in low glucose DMEM without serum. […] After incubation, 10 μl of the MTT reagent (Abcam) was added to each well and, after 30 min, 45 min and 60 min of incubation, the absorbance at 490 nm was measured in a photometer with a Biotek TX plate reader. The reading is an indirect measure of the NAD(P)H enzyme dependent on cellular oxidase reductases. […]

N9-(3-diethylphosphonyl)phenyl-adenine
AMPK activity as % of that obtained with the AMP positive control (AMPK): greater than 500% | AMPK activity compared with the AMP positive control (AMPK): higher AMPK activity than the AMP positive control | Luminosity as % of the control (glucose consumption) (C2C12 cells [1]; 30 nanomolar, C2C12 myotubes): 125±9% | glucose consumption activity compared with insulin controls (C2C12 cells [1]; concentrations as low as 30 nanomolar, control 100 nanomolar human insulin): analogous to or greater than that of insulin controls | Luminosity as % of the control (MTT) (C2C12 cells [2]; 30 nanomolar, 48 hours incubation): 157±5% | MTT signal compared to controls (C2C12 cells [2]; nanomolar concentrations): significantly higher signal compared to controls
